Laboratory results: patent US8569380B2, “Oligomer-tricyclic conjugates” (Nektar Therapeutics, priority 2007, dated 2013)
Several values for one entry are separate records, joined by “and”; a condition that tells them apart may be missing. Identical values can stand only once. Like-named read-outs stand apart in the source and are kept apart here.

Key:
[1] = molecular target: sodium channels (cardiac INa) in isolated human atrial myocytes (Homo sapiens, UniProt Q14524); experiment: Sodium channel assay, whole-cell patch clamp, cardiac INa; format: cell-based; settings: for IC50: approximate, >50% inhibition not obtained at highest concentration
Sequence of sodium channels (cardiac INa) in isolated human atrial myocytes (Q14524 whole entry): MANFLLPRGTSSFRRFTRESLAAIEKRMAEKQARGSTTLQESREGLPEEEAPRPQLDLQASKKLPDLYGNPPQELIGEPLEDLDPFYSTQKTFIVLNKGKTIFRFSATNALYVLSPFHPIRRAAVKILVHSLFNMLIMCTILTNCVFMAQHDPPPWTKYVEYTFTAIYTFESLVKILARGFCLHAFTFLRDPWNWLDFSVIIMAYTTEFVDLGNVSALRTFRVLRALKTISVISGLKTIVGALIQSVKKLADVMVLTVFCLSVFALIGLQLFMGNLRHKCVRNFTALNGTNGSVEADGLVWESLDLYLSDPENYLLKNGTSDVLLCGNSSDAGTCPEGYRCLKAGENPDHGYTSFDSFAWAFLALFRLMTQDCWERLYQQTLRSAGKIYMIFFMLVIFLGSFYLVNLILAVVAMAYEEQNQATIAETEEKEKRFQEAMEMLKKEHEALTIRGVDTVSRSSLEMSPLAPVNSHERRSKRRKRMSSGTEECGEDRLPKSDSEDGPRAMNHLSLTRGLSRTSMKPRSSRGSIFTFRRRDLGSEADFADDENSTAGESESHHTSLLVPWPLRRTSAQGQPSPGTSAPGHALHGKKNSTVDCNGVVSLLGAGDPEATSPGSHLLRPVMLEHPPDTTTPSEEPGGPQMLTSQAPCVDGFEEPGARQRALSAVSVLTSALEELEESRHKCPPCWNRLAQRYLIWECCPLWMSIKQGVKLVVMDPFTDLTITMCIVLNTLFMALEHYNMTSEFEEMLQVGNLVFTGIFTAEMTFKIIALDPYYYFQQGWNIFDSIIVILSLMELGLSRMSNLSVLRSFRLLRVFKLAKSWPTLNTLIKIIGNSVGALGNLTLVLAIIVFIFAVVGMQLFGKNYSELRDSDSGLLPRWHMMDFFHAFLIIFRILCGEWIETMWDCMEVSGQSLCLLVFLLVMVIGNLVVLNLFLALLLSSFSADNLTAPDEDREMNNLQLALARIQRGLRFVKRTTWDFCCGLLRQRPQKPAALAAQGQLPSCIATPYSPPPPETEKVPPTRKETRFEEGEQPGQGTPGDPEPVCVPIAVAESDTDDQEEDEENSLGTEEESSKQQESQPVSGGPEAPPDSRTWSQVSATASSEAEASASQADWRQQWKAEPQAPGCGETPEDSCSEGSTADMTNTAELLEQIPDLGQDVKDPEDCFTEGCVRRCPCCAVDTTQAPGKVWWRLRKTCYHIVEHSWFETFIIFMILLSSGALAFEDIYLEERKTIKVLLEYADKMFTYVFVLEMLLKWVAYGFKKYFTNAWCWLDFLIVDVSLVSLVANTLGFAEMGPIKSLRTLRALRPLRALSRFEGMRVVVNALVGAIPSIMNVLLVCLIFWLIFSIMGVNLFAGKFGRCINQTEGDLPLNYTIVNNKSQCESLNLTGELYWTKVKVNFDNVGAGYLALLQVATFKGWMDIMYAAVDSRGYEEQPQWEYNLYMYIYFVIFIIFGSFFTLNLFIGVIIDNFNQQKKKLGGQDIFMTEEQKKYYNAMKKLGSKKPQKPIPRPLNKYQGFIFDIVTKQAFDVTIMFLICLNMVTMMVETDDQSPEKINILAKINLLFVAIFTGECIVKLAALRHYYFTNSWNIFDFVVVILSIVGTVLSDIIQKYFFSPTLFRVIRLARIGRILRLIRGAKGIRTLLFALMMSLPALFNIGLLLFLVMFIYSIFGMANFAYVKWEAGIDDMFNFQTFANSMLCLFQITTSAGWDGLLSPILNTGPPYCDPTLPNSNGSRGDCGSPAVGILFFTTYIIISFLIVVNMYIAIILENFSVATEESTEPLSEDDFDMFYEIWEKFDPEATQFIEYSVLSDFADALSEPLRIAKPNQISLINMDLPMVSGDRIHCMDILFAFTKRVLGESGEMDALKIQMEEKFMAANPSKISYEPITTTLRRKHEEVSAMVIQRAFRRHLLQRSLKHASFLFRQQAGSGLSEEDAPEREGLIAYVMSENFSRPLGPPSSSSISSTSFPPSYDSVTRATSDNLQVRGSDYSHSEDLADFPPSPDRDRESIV

[2] = tested on: sodium channels (neuronal INa) in isolated rat dorsal root ganglion cells; experiment: Sodium channel assay, whole-cell patch clamp, neuronal INa; format: cell-based; settings: for IC50: approximate, >50% inhibition not obtained at highest concentration
[3] = molecular target: T1, recombinant human H1 histamine receptor (Homo sapiens, UniProt P35367); experiment: Histamine receptor radioligand binding assay, H1; settings: for H1 Receptor Fold-change over parent: Ki relative to amitriptyline; for Ki: [3H]-Pyrilamine 1.2 nM, CHO membranes; for H1:H2 Selectivity: H2 Ki versus H1 Ki
T1 construct: expressed in transfected cells; host or cells: CHO cells (membranes)
T1 sequence (P35367 whole entry): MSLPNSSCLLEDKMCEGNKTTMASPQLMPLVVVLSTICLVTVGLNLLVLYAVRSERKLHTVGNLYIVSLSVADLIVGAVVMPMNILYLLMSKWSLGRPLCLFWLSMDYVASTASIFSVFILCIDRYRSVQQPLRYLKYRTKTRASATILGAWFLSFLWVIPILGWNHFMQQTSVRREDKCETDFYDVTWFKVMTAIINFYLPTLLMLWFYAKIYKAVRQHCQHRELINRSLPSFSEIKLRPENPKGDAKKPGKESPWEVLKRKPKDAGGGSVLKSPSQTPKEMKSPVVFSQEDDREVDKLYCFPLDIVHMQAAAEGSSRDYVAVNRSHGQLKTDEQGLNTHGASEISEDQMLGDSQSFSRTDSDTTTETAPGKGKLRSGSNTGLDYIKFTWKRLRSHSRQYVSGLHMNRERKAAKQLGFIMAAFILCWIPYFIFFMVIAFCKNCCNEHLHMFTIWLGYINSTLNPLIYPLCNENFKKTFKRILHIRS
Protocol: (§1) Competition binding experiments were conducted by incubating membranes with a fixed concentration of radioligand in the presence of variable concentrations of test compounds. The radioligands used were specific for each receptor subtype and the assay conditions are described in Table 2. Following incubations, the membranes were washed and the bound radioactivity was measured. Non-specific binding was measured in the presence of excess unlabelled ligand; this value was subtracted from the total binding yielding the specific binding at each test compound concentration.
(§2) Ki was obtained using the Cheng Prusoff correction using experimental Kd values that were previously determined under the same assay conditions.

[4] = molecular target: T2, recombinant human M2 muscarinic acetylcholine receptor (Homo sapiens, UniProt P08172); experiment: Muscarinic receptor binding assay, M2; settings: 3H-N-Methylscopolamine 0.8 nM, CHO membranes
T2 construct: expressed in transfected cells; host or cells: CHO cells (membranes)
T2 sequence (P08172 1-466): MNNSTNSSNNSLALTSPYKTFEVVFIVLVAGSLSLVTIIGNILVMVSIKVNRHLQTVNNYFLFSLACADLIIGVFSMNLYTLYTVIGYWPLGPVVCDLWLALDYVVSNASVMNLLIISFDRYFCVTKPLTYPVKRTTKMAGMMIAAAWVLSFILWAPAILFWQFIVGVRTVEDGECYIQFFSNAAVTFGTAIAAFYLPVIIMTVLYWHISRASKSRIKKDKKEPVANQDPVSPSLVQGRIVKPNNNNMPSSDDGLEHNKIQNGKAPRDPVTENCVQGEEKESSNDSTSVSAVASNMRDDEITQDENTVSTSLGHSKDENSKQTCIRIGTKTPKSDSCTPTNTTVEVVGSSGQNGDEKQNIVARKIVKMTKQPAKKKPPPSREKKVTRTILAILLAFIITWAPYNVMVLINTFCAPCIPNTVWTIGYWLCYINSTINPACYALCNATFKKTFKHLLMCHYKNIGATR
Protocol: (§3) Competition binding experiments were conducted by incubating membranes with a fixed concentration of radioligand in the presence of variable concentrations of test compounds. ^3H—N-Methylscopolamine at 0.8 nM was used as the radioligand for all receptor subtypes. Incubations were carried out for 2 hours at 25° C. in buffer containing 50 mM Tris HCl, 10 mM MgCl2 and 1 mM EDTA. Following incubations, the membranes were washed the bound radioactivity was measured. […] Ki was obtained using the Cheng Prusoff correction using Kd values that were experimental determined previously under these assay conditions.

[5] = molecular target: T3, recombinant human M1 muscarinic acetylcholine receptor (Homo sapiens, UniProt P11229); experiment: Muscarinic receptor binding assay, M1; settings: 3H-N-Methylscopolamine 0.8 nM, CHO membranes
T3 construct: expressed in transfected cells; host or cells: CHO cells (membranes)
T3 sequence (P11229 1-460): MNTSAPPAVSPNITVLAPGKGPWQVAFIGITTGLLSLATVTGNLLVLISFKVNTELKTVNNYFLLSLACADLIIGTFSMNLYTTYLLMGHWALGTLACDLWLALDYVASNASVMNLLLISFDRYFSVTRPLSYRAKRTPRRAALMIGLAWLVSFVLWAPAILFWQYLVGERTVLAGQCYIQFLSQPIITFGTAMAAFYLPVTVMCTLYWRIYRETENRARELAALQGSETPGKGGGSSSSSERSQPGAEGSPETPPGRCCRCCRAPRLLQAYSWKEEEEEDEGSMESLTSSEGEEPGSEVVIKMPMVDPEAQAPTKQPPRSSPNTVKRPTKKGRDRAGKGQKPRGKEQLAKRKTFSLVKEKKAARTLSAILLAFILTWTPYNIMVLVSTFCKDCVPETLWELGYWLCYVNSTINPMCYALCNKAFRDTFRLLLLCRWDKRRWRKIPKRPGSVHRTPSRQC
Protocol: as §3

[6] = molecular target: T4, noradrenalin transporters (rat forebrain membranes) (Rattus norvegicus, UniProt Q9WTR4); experiment: Noradrenalin transporter binding assay; settings: for Ki: [3H]-nisoxetine 1.0 nM, rat forebrain membranes, read-out: Ki, binding affinity to noradrenalin transporters
T4 construct: membranes prepared from rat forebrain which express noradrenalin transporters; from tissue; host or cells: rat forebrain membranes
T4 sequence (Q9WTR4 1-597): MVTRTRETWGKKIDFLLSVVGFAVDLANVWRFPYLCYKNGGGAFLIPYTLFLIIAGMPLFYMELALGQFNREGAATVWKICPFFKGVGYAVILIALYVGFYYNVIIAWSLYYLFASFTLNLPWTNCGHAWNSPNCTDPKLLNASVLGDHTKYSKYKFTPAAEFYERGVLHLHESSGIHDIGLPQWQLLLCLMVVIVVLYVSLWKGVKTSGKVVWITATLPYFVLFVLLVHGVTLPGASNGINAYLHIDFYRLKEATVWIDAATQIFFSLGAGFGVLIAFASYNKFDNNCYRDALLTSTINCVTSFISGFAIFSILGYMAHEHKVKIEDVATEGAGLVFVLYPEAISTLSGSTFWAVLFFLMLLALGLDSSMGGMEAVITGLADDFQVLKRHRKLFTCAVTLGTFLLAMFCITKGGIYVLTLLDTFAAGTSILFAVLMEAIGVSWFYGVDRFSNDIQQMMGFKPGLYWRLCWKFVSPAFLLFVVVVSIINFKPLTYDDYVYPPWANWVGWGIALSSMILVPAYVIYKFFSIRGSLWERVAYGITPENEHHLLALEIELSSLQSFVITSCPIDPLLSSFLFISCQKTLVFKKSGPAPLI
Protocol: Competition binding experiments were conducted by incubating membranes with 1.0 nM of radioligand, [^3H]-nisoxetine, in the presence of variable concentrations (0.1 nM to 3 μM and 3 nM to 100 μM for parent and PEG conjugates, respectively) of test compounds. The reaction was carried out in 50 mM Tris-HCl (pH 7.4), 300 mM NaCl, 5 mM KCl at 0-4° C. for 4 hours. Following incubations, the membranes were washed, and the bound radioactivity was measured.
Ki was obtained using the Cheng Prusoff correction using experimental Kd values that were previously determined under these assay conditions.

[7] = pKa and LogP determinations; format: physicochemical
[8] = molecular target: T5, recombinant human H2 histamine receptor (Homo sapiens, UniProt P25021); experiment: Histamine receptor radioligand binding assay, H2; settings: for H2 Receptor Fold-change over parent: Ki relative to amitriptyline; for Ki: [125I]-Aminopotentidine 0.1 nM, CHO membranes
T5 construct: expressed in transfected cells; host or cells: CHO cells (membranes)
T5 sequence (P25021 whole entry): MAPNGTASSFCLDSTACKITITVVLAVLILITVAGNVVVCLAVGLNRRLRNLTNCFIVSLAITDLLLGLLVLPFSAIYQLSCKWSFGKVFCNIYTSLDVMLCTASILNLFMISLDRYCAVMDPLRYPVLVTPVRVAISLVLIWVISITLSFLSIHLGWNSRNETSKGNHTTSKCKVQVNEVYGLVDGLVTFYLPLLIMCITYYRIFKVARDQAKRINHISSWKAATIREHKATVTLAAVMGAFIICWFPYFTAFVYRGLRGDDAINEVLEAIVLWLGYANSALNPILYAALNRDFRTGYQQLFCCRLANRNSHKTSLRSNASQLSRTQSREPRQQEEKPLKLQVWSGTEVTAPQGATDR
Protocol: as §1, §2

[9] = molecular target: T6, recombinant human M4 muscarinic acetylcholine receptor (Homo sapiens, UniProt P08173); experiment: Muscarinic receptor binding assay, M4; settings: 3H-N-Methylscopolamine 0.8 nM, CHO membranes
T6 construct: expressed in transfected cells; host or cells: CHO cells (membranes)
T6 sequence (P08173 1-479): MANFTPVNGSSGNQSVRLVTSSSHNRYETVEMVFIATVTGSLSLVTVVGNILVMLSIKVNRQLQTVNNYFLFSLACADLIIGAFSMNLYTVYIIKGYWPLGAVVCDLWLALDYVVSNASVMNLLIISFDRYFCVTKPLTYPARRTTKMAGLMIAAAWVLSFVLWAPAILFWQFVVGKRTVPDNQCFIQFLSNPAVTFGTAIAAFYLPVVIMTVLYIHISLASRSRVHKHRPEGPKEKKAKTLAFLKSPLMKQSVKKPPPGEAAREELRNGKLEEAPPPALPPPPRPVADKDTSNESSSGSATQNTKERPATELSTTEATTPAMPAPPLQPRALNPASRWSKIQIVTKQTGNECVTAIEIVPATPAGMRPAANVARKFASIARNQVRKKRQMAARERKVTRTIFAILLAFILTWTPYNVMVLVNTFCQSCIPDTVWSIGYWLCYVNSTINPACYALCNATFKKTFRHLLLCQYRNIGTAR
Protocol: as §3

[10] = molecular target: T7, recombinant human M5 muscarinic acetylcholine receptor (Homo sapiens, UniProt P08912); experiment: Muscarinic receptor binding assay, M5; settings: 3H-N-Methylscopolamine 0.8 nM, CHO membranes
T7 construct: expressed in transfected cells; host or cells: CHO cells (membranes)
T7 sequence (P08912 1-532): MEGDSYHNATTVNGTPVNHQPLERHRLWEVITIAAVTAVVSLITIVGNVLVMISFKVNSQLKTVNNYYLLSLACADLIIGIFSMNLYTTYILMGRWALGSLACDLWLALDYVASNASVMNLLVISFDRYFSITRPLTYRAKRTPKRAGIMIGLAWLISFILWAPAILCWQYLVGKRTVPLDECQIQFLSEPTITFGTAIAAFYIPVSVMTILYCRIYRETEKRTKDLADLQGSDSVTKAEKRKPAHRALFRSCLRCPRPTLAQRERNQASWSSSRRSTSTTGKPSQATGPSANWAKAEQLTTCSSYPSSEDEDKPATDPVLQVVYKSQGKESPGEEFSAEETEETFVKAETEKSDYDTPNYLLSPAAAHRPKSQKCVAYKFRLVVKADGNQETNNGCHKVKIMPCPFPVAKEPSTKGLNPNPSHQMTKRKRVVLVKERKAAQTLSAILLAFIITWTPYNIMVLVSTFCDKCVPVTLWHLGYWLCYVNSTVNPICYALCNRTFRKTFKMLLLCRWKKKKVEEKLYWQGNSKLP
Protocol: as §3

[11] = pacing 0.1 Hz, read-out: Cardiac INa IC50 at 0.1 Hz
[12] = pacing 3 Hz, read-out: Cardiac INa IC50 at 3 Hz
[13] = pacing 0.1 Hz, read-out: Neuronal INa IC50 at 0.1 Hz
[14] = pacing 3 Hz, read-out: Neuronal INa IC50 at 3 Hz

NC1=N[C@H](O)[C@H]2[C@H]3O[C@]4(O)O[C@@H]([C@@H](O)[C@@]2(N1)[C@@H]4O)[C@]3(O)CO [TTX, tetrodotoxin, reference compound]
reduction of INa [1]: 47.2% and 56.8% | reduction of INa [2]: 93.2% and 96.8%

COCCOCCOCCNC(=O)N1c2ccccc2C=Cc2ccccc21 [mPEG3-N-Carbamazepine]
Cardiac INa Fold Change Relative to Parent, 0.1 Hz [1]: 2.8 | Cardiac INa Fold Change Relative to Parent, 3 Hz [1]: 1.5 | IC50 [1, 11]: 460 µM | IC50 [1, 12]: 214 µM | IC50 [2, 13]: 142 µM | IC50 [2, 14]: 578 µM

COCCOCCOCCOCCOCCOCCOCCN(C)CCC=C1c2ccccc2CCc2ccccc21 [mPEG7-N-Amitriptyline]
H1 Receptor Fold-change over parent [3]: 23 | Ki [3]: 0.00744 µM | Ki [4]: 1.14 µM

COCCOCCOCCOCCOCCOCCN(C)CCC=C1c2ccccc2CCc2ccccc21 [mPEG6-N-Amitriptyline]
Ki [5]: 0.869 µM | H1 Receptor Fold-change over parent [3]: 19 | Ki [3]: 0.00613 µM | Ki [4]: 1.17 µM

COCCOCCOCCNCCCN1c2ccccc2CCc2ccccc21 [mPEG3-NH-Desipramine, N-mPEG3-3-(10,11-dihydro-dibenzo[b,f]azepin-5-yl)-propylamine]
Fold Change Relative to Parent [6]: 3336 | Ki [6]: 6.65 µM | logP [7]: 3.14 | pKa [7]: 8.96

COCCOCCOCCOCCOCCN(C)CCC=C1c2ccccc2CCc2ccccc21 [mPEG5-N-Amitriptyline]
H2 Receptor Fold-change over parent [8]: 63 | Ki [8]: 13.1 µM | H1:H2 Selectivity [3]: 3670 | H1 Receptor Fold-change over parent [3]: 11 | Ki [3]: 0.00357 µM

COCCOCCOCCOCCOCCOCCOCCNCCCN1c2ccccc2CCc2ccccc21 [mPEG7-NH-Desipramine, N-mPEG7-3-(10,11-dihydro-dibenzo[b,f]azepin-5-yl)-propylamine]
Fold Change Relative to Parent [6]: 2972 | Ki [6]: 5.92 µM | logP [7]: 2.5 | pKa [7]: 8.94

COCCOCCOCCN(C)CCCN1c2ccccc2CCc2ccccc21 [mPEG3-N-Desipramine]
pKa [7]: 8.47

COCCOCCOCCN(C)CCC=C1c2ccccc2CCc2ccccc21 [mPEG3-N-Amitriptyline]
H2 Receptor Fold-change over parent [8]: 14 | Ki [8]: 3.01 µM | H1:H2 Selectivity [3]: 1663 | H1 Receptor Fold-change over parent [3]: 6 | Ki [3]: 0.00181 µM

COCCOCCOCCOCCOCCOCCOCCOCCN(C)CCCN1c2ccccc2CCc2ccccc21 [mPEG8-N-Desipramine]
pKa [7]: 8.66

CN(C)CCC=C1c2ccccc2CCc2ccccc21 [Amitriptyline]
Ki [9]: 0.0239 µM | Ki [10]: 0.017 µM

COCCOCCOCCOCCOCCOCCOCCNC(=O)N1c2ccccc2C=Cc2ccccc21 [mPEG7-N-Carbamazepine]
Cardiac INa Fold Change Relative to Parent, 0.1 Hz [1]: 2.4 | Cardiac INa Fold Change Relative to Parent, 3 Hz [1]: 1.2 | IC50 [1, 11]: 380 µM | IC50 [1, 12]: 169 µM | IC50 [2, 13]: 144 µM | IC50 [2, 14]: 163 µM

COCCOCCOCCOCCOCCN(C)CCCN1c2ccccc2CCc2ccccc21 [mPEG5-N-Desipramine]
pKa [7]: 8.55

COCCOCCOCCOCCOCCNC(=O)N1c2ccccc2C=Cc2ccccc21 [mPEG5-N-Carbamazepine]
Cardiac INa Fold Change Relative to Parent, 0.1 Hz [1]: 0.4 | Cardiac INa Fold Change Relative to Parent, 3 Hz [1]: 0.4

NC(=O)N1c2ccccc2C=Cc2ccccc21 [Carbamazepine, reference compound]
Cardiac INa Fold Change Relative to Parent, 0.1 Hz ([1]; pacing 0.1 Hz, relative to carbamazepine): 1.0 | IC50 [1, 11]: 160 µM | Cardiac INa Fold Change Relative to Parent, 3 Hz ([1]; pacing 3 Hz, relative to carbamazepine): 1.0 | IC50 [1, 12]: 145 µM | IC50 [2, 13]: 102 µM | IC50 [2, 14]: 114 µM
